From ChEMBL document CHEMBL1147075, “Immunotherapeutic activity of a conjugate of a Toll-like receptor 7 ligand” (Proc Natl Acad Sci U S A, 2007)
Active and inactive are the calls of the source. The rule behind the calls is not given here.

What was measured:
BMDM = test: Induction of cytokine release in mouse BMDM cells at 0.01 to 10 uM after 24 hrs by ELISA; type: functional, cell-based
Bacillus anthracis = test: Protection against Bacillus anthracis infection in A/J mouse; type: functional, organism-based

For `COCCOc1nc(N)c2nc(O)n(Cc3ccc(C=O)cc3)c2n1`, the Activity (BMDM) was “Active” and the Activity (Bacillus anthracis) was “inactive”.
